Data reported in patent US20110088107A1, “COMPOSITIONS AND METHODS FOR DERIVING OR CULTURING PLURIPOTENT CELLS” (priority 2009, published 2011).

Tested on: NOD-iPS cells
Test: Dox-independent propagation of Dox-dependent NOD-iPS cells in supplemented mESM
Assay type: cell-based, mouse (NOD)
Details: mESM lacking Dox
Text: FIGS. 4(A)-4(H) illustrate generation of genetically unmodified germline competent NOD ES cells. (A) Experimental outline for derivation of iPS lines that grow in the presence of small molecules and in the absence of Dox. Representative images of NOD iPS lines growing in mESM supplemented with the indicated small molecules or growth factors. (B) Single-cell cloning efficiency of NOD iPS cells in different growth conditions. WT or NOD-iPS cells grown in mESM and KP were sorted in 96 well plates and cultured in mESM supplemented with small molecules. The number of wells containing Nanog+ colonies was counted after 6 days. Efficiencies were normalized to that of C57B6/129F1-iPS cells (“permissive” controls) plated in mESM and defined as 100%. SD for average efficiencies from 2 experiments are shown. Student test P value compares KP/CH to PD/CH mESM conditions for NOD iPS cells. (C) Expansion of day E3.5 ICM derived NOD ES cells in the presence of KP, KP/CH or PD/CH and derivation of stable ES lines. Images of initial colonies observed at passage 2 after embryo dissociation are shown together with representative images at later passages. (D) Karyotype of NOD ES lines. (E) Immunostaining of NOD ES lines for pluripotency markers. Inhibitors used during cell line derivation and propagation are indicated. (F) Chimerism in adult mice generated from the indicated cell lines is evident by the presence of agouti (brown) and albino coat color originating from the NOD background. […] (G) Real-Time PCR analysis for endogenous expressed Oct4, c-Myc and Klf4 genes in NOD iPS and ES cells grown in the indicated conditions. Relative expression levels are normalized to levels detected in control 129 ES cells. (H) Southern analysis indicating correct targeting of the endogenous Nanog locus in NOD ES cells with Nanog-GFP knock-in targeting construct.
Small molecules have been identified to replace some of the reprogramming factors in iPS derivation (Huangfu et al., 2008; Shi et al., 2008). […]

O=C1Cc2c([nH]c3ccc(Br)cc23)-c2ccccc2N1 [Kenpaullone, 9-bromo-7,12-dihydroindolo[3,2-d][1]benzazepin-6(5H)-one]
Dox-independent growth of pluripotent NOD-iPS cells: supported Dox-independent growth
